biological target: T1, KCNT1 (KNa1.1, Slack) (Homo sapiens, UniProt Q5JUK3); assay: KCNT1 patch clamp assay (SyncroPatch 384PE automated patch clamp); format: cell-based; settings: tetracycline inducible HEK-TREX cell line; perforated patch; step from −80 mV to 0 mV; room temperature; read-out: KCNT1-WT IC50
T1 construct: expressed in transfected cells; host or cells: HEK-TREX (tetracycline-inducible HEK cell line)
T1 sequence (Q5JUK3 1-1230): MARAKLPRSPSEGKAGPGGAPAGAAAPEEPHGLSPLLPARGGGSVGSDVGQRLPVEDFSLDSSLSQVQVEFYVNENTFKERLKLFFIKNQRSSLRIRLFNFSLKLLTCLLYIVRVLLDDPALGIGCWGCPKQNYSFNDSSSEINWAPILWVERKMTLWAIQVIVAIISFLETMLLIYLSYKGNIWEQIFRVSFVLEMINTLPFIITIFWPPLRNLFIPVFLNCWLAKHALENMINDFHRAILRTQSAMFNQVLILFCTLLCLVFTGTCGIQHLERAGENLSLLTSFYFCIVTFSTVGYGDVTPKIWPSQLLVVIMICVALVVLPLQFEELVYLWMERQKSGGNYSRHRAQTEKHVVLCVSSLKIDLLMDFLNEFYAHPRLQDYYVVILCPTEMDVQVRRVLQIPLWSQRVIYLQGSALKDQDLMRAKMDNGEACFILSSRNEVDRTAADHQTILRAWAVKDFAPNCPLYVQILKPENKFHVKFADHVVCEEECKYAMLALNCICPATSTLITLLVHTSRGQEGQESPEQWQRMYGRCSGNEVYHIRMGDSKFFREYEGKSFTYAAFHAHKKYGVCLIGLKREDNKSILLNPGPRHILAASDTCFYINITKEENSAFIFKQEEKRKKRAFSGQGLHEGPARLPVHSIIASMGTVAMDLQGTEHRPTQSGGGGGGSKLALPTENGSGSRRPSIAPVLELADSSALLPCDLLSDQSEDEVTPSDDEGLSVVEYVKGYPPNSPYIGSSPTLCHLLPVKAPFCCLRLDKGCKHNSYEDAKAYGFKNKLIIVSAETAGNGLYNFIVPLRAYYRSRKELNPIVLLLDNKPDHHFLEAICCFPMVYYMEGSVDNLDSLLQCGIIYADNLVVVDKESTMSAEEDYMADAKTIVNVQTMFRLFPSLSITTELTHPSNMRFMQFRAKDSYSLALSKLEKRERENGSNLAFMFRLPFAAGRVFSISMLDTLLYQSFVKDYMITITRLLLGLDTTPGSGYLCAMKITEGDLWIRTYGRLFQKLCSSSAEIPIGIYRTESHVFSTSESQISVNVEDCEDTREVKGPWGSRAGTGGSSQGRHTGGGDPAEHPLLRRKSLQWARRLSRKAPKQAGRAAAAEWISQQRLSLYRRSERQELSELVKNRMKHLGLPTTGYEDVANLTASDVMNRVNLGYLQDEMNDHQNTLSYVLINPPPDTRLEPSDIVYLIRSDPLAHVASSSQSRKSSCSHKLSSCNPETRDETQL
How it was run: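 Tetracycline-inducible HEK-TREX cells; perforated-patch (10 μM escin) population recordings at room temperature, holding −80 mV with 100 ms step to 0 mV.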

Row | IC50 [nM] | SMILES
1 | ≤ 1000 | C[C@H](NC(=O)c1cc(C(F)(F)F)nn1C)c1nc(-c2ccnc(C3CCCC3)c2)no1 [Compound 307, (S)—N-(1-(3-(2-cyclopentylpyridin-4-yl)-1,2,4-oxadiazol-5-yl)ethyl)-1-methyl-3-(trifluoromethyl)-1H-pyrazole-5-carboxamide]
2 | ≤ 1000 | C[C@H](NC(=O)c1cc(C(F)F)nn1C)c1nc(-c2ccnc(C3CCCC3)c2)no1 [Compound 308, (S)—N-(1-(3-(2-cyclopentylpyridin-4-yl)-1,2,4-oxadiazol-5-yl)ethyl)-3-(difluoromethyl)-1-methyl-1H-pyrazole-5-carboxamide]
3 | ≤ 1000 | C[C@H](NC(=O)c1ccnn1CC1CC1)c1nc(-c2ccnc(C3CCCC3)c2)no1 [Compound 309, (S)—N-(1-(3-(2-cyclopentylpyridin-4-yl)-1,2,4-oxadiazol-5-yl)ethyl)-1-(cyclopropylmethyl)-1H-pyrazole-5-carboxamide]
4 | ≤ 1000 | C[C@H](NC(=O)c1ccnn1CC1CC1)c1nc(-c2ccnc(C3CC3)c2)no1 [Compound 310, 2-(cyclopropylmethyl)-N-[(1S)-1-[3-(2-cyclopropyl-4-pyridyl)-1,2,4-oxadiazol-5-yl]ethyl]pyrazole-3-carboxamide]

Second part, the molecule before the results:

Row | SMILES | IC50 [nM]
5 | CN(Cc1nc(-c2ccnc(C3CC3)c2)no1)C(=O)c1cc(C(F)(F)F)nn1C [Compound 302, N-[[3-(2-cyclopropyl-4-pyridyl)-1,2,4-oxadiazol-5-yl]methyl]-N,2-dimethyl-5-(trifluoromethyl)pyrazole-3-carboxamide] | ≤ 1000
6 | C[C@H](NC(=O)c1ccnn1C1CCC1)c1nc(-c2ccnc(C3CC3)c2)no1 [Compound 304, 2-cyclobutyl-N-[(1S)-1-[3-(2-cyclopropyl-4-pyridyl)-1,2,4-oxadiazol-5-yl]ethyl]pyrazole-3-carboxamide] | ≤ 1000
7 | C[C@H](NC(=O)c1ccnn1C1CC1)c1nc(-c2ccnc(C3CC3)c2)no1 [Compound 305, 2-cyclopropyl-N-[(1S)-1-[3-(2-cyclopropyl-4-pyridyl)-1,2,4-oxadiazol-5-yl]ethyl]pyrazole-3-carboxamide] | ≤ 1000
8 | C[C@H](NC(=O)c1ccn(Cc2ccccc2)n1)c1nc(-c2ccnc(C3CC3)c2)no1 [Compound 306, 1-benzyl-N-[(1S)-1-[3-(2-cyclopropyl-4-pyridyl)-1,2,4-oxadiazol-5-yl]ethyl]pyrazole-3-carboxamide] | ≤ 1000
